Measurements published in PubChem BioAssay AID1845204 (Molecular Pharmacology Branch, DTP, NCI, 2023).

Test system: HSSY-II tumor spheroid viability
Assay: Anticancer human tumor HSSY-II cell line growth inhibition;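 also: spheroids exposed to compounds for seven days before reading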;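 as to viability, T/C: percent of DMSO vehicle control viability so 100% = untreated level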
Conditions: spheroids with HUVEC and MSC; for IC50: curve of first compound; for viability, T/C: stronger effect = lower value
Outline: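 Single agents and combinations were tested on spheroids built from tumor cells plus HUVEC and hMSC, at half-log dilutions starting at or near clinical Cmax, else 10 microM; final DMSO 0.25% (v/v).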

[1] = second compound 1 µM, first compound 0.0316 µM
[2] = second compound 1 µM, first compound 0.1 µM
[3] = second compound 1 µM, first compound 0.316 µM
[4] = second compound 1 µM, first compound 1 µM
[5] = second compound 1 µM, first compound 3.16 µM
[6] = second compound 1 µM, first compound 10 µM
[7] = second compound 3.16 µM, first compound 0.0316 µM
[8] = second compound 3.16 µM, first compound 0.1 µM
[9] = second compound 3.16 µM, first compound 0.316 µM
[10] = second compound 3.16 µM, first compound 1 µM
[11] = second compound 3.16 µM, first compound 3.16 µM
[12] = second compound 3.16 µM, first compound 10 µM
[13] = second compound 10 µM, first compound 0.0316 µM
[14] = second compound 10 µM, first compound 0.1 µM
[15] = second compound 10 µM, first compound 0.316 µM
[16] = second compound 10 µM, first compound 1 µM
[17] = second compound 10 µM, first compound 3.16 µM
[18] = second compound 10 µM, first compound 10 µM
[19] = second compound 31.6 µM, first compound 0.0316 µM
[20] = second compound 31.6 µM, first compound 0.1 µM
[21] = second compound 31.6 µM, first compound 0.316 µM
[22] = second compound 31.6 µM, first compound 1 µM
[23] = second compound 31.6 µM, first compound 3.16 µM
[24] = second compound 31.6 µM, first compound 10 µM
[25] = second compound 100 µM, first compound 0.0316 µM
[26] = second compound 100 µM, first compound 0.1 µM
[27] = second compound 100 µM, first compound 0.316 µM
[28] = second compound 100 µM, first compound 1 µM
[29] = second compound 100 µM, first compound 3.16 µM
[30] = second compound 100 µM, first compound 10 µM

`Cn1ncnc1[C@H]1c2n[nH]c(=O)c3cc(F)cc(c23)N[C@@H]1c1ccc(F)cc1` + Cn1nnc2c(C(N)=O)ncn2c1=O showed an IC50 (second compound 1 µM) of 88.1 nM, an IC50 (second compound 3.16 µM) of 41.7 nM and an IC50 (second compound 10 µM) of 21.1 nM. It also gave an IC50 (second compound 31.6 µM) of less than 9.49 nM, an IC50 (second compound 100 µM) of less than 9.49 nM and a viability, T/C (second compound 1 µM, first compound 0.00949 µM) of 86.8%. It also gave a viability, T/C (second compound 1 µM, first compound 0.03 µM) of 68.6%, a viability, T/C (second compound 1 µM, first compound 0.0949 µM) of 52.6% and a viability, T/C (second compound 1 µM, first compound 0.3 µM) of 20.8%. It also gave a viability, T/C (second compound 1 µM, first compound 0.949 µM) of 10.8%, a viability, T/C (second compound 1 µM, first compound 3 µM) of 6.39% and a viability, T/C (second compound 3.16 µM, first compound 0.00949 µM) of 83%. It also gave a viability, T/C (second compound 3.16 µM, first compound 0.03 µM) of 50.1%, a viability, T/C (second compound 3.16 µM, first compound 0.0949 µM) of 45.6% and a viability, T/C (second compound 3.16 µM, first compound 0.3 µM) of 15.5%. The viability, T/C (second compound 3.16 µM, first compound 0.949 µM) was 9.89%, the viability, T/C (second compound 3.16 µM, first compound 3 µM) was 8.35% and the viability, T/C (second compound 10 µM, first compound 0.00949 µM) was 70.3%. The viability, T/C (second compound 10 µM, first compound 0.03 µM) was 41.2%, the viability, T/C (second compound 10 µM, first compound 0.0949 µM) was 15.4% and the viability, T/C (second compound 10 µM, first compound 0.3 µM) was 10.5%. It also gave a viability, T/C (second compound 10 µM, first compound 0.949 µM) of 8.29%, a viability, T/C (second compound 10 µM, first compound 3 µM) of 6.47% and a viability, T/C (second compound 31.6 µM, first compound 0.00949 µM) of 20.1%. The viability, T/C (second compound 31.6 µM, first compound 0.03 µM) was 10.9%, the viability, T/C (second compound 31.6 µM, first compound 0.0949 µM) was 9.75% and the viability, T/C (second compound 31.6 µM, first compound 0.3 µM) was 8.55%. The viability, T/C (second compound 31.6 µM, first compound 0.949 µM) was 7.6%, the viability, T/C (second compound 31.6 µM, first compound 3 µM) was 4.67% and the viability, T/C (second compound 100 µM, first compound 0.00949 µM) was 8.89%. It also gave a viability, T/C (second compound 100 µM, first compound 0.03 µM) of 7.52%, a viability, T/C (second compound 100 µM, first compound 0.0949 µM) of 8.61% and a viability, T/C (second compound 100 µM, first compound 0.3 µM) of 7.59%. It also gave a viability, T/C (second compound 100 µM, first compound 0.949 µM) of 6.58% and a viability, T/C (second compound 100 µM, first compound 3 µM) of 5.25%.

Work on `[2H]c1nc(C)nc([2H])c1-c1cc(NC[C@@H](C)c2cccc3c(C(=O)NC)ccnc23)ncn1` + Cn1nnc2c(C(N)=O)ncn2c1=O yielded an IC50 (second compound 1 µM) greater than 10000 nM, an IC50 (second compound 3.16 µM) greater than 10000 nM and an IC50 (second compound 10 µM) greater than 10000 nM. The IC50 (second compound 31.6 µM) was greater than 10000 nM, the IC50 (second compound 100 µM) was greater than 10000 nM and the viability, T/C [1] was 103%. It also gave a viability, T/C [2] of 101%, a viability, T/C [3] of 100% and a viability, T/C [4] of 96.8%. It also gave a viability, T/C [5] of 93.8%, a viability, T/C [6] of 91.7% and a viability, T/C [7] of 104%. For the same compound, the viability, T/C [8] was 100%, the viability, T/C [9] was 98.5% and the viability, T/C [10] was 107%. It also gave a viability, T/C [11] of 94.1%, a viability, T/C [12] of 90.8% and a viability, T/C [13] of 98.2%. For the same compound, the viability, T/C [14] was 103%, the viability, T/C [15] was 101% and the viability, T/C [16] was 97.5%. The viability, T/C [17] was 95.3%, the viability, T/C [18] was 86.2% and the viability, T/C [19] was 108%. For the same compound, the viability, T/C [20] was 102%, the viability, T/C [21] was 106% and the viability, T/C [22] was 102%. The viability, T/C [23] was 97.2%, the viability, T/C [24] was 94.4% and the viability, T/C [25] was 91.1%. For the same compound, the viability, T/C [26] was 94.4%, the viability, T/C [27] was 95.2% and the viability, T/C [28] was 91.4%. It also gave a viability, T/C [29] of 90.9% and a viability, T/C [30] of 85%.

Compound `CC1COCCN1c1cc(-c2ccnn2C)c2ccnc(-c3ccn[nH]3)c2n1` (stereo not given) + Cn1nnc2c(C(N)=O)ncn2c1=O has an IC50 (second compound 1 µM) of less than 31.6 nM, an IC50 (second compound 3.16 µM) of less than 31.6 nM and an IC50 (second compound 10 µM) of less than 31.6 nM. For the same compound, the IC50 (second compound 31.6 µM) was less than 31.6 nM, the IC50 (second compound 100 µM) was less than 31.6 nM and the viability, T/C [1] was 29%. The viability, T/C [2] was 6.4%, the viability, T/C [3] was 2.45% and the viability, T/C [4] was 1.92%. For the same compound, the viability, T/C [5] was 1.78%, the viability, T/C [6] was 2.4% and the viability, T/C [7] was 25.1%. The viability, T/C [8] was 6.11%, the viability, T/C [9] was 2.71% and the viability, T/C [10] was 2.03%. The viability, T/C [11] was 1.93%, the viability, T/C [12] was 2.28% and the viability, T/C [13] was 19%. The viability, T/C [14] was 6.18%, the viability, T/C [15] was 2.63% and the viability, T/C [16] was 2%. The viability, T/C [17] was 1.88%, the viability, T/C [18] was 2.59% and the viability, T/C [19] was 16.2%. It also gave a viability, T/C [20] of 4.45%, a viability, T/C [21] of 2.43% and a viability, T/C [22] of 2%. The viability, T/C [23] was 2.1%, the viability, T/C [24] was 2.35% and the viability, T/C [25] was 6.2%. For the same compound, the viability, T/C [26] was 4.15%, the viability, T/C [27] was 2.65% and the viability, T/C [28] was 2.04%. It also gave a viability, T/C [29] of 1.79% and a viability, T/C [30] of 1.82%.
